Reference: the supplement of paper PMC10627819

Legend:
B. subtilis 168 [1] = assay: fitness (endpoint OD595 vs no drug) (fraction); higher = more growth
Summary of the method: (§1)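 Cultures at OD595 0.01 were dispensed into 384-well plates in TSB, LB Lennox or CY and incubated at 37 °C. Every 30 min for 14 h, OD595 was read and corrected by the first reading. Fitness is the optical density at entry into stationary phase relative to the robust mean of no-drug control wells, capped at 1.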

S. pneumoniae D39V [2] = assay: Bliss interaction score (quartile over a dose matrix) (fitness difference); higher = more antagonism (negative = synergy)
Summary of the method: (§2)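 Fitness is OD595 at stationary-phase entry relative to the plate's robust no-drug mean, capped at 1. Single-drug fitness was inferred from combinations. The Bliss score is observed minus product-expected fitness, summarised by quartiles over technical, biological and donor/recipient replicates.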

S. aureus DSM 20231 = assay: as above
Summary of the method: as §2

B. subtilis 168 [3] = assay: as above
Summary of the method: as §2

S. aureus Newman = assay: as above
Summary of the method: as §2

S. pneumoniae D39V [4] = assay: fitness (endpoint OD595 vs no drug) (fraction); higher = more growth
Summary of the method: as §1
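For Bliss interaction score (quartile over a dose matrix) in this document: first quartile when negative (synergy) and third quartile when positive (antagonism).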

C[C@H]1COc2c(N3CCN(C)CC3)c(F)cc3c(=O)c(C(=O)O)cn1c23 [Levofloxacin] + CO[C@@H]1[C@@H](OC(N)=O)[C@@H](O)[C@H](Oc2ccc3c(O)c(NC(=O)c4ccc(O)c(CC=C(C)C)c4)c(=O)oc3c2C)OC1(C)C [Novobiocin]
fitness, B. subtilis 168 [1], one replicate
Details	partner 0.05 µg/mL	partner 0.1 µg/mL	partner 0.125 µg/mL	partner 0.2 µg/mL	partner 0.25 µg/mL	partner 0.5 µg/mL
first compound 0.001 µg/mL	≥ 1	≥ 1	–	≥ 1	–	–
first compound 0.002 µg/mL	0.929	0.952	0.908	0.933	0.874	0.493
first compound 0.0039 µg/mL	0.965	≥ 1	0.839	0.928	0.808	0.505
first compound 0.0078 µg/mL	–	–	0.864	–	0.808	0.457

fitness, B. subtilis 168 [1]
Details	first compound 0.0312 µg/mL	first compound 0.0625 µg/mL	first compound 0.125 µg/mL
partner 0.0125 µg/mL	0.0275	0.0273	0.0195
partner 0.025 µg/mL	0.0255	0.0301	0.0265
partner 0.05 µg/mL	0.028	0.0286	0.0286

Details	Bliss interaction score
B. subtilis 168 [3]	-0.0305
S. aureus DSM 20231	-0.0698
S. aureus Newman	-0.091
S. pneumoniae D39V [2]	-0.121

C[C@H]1COc2c(N3CCN(C)CC3)c(F)cc3c(=O)c(C(=O)O)cn1c23 [Levofloxacin] + COc1cc(Cc2cnc(N)nc2N)cc(OC)c1OC [Trimethoprim]
B. subtilis 168 [1], one replicate
Details	fitness
first compound 0.001 µg/mL, partner 0.125 µg/mL	0.528
first compound 0.001 µg/mL, partner 0.25 µg/mL	0.41
first compound 0.001 µg/mL, partner 0.5 µg/mL	0.456
first compound 0.002 µg/mL, partner 0.1 µg/mL	0.907
first compound 0.002 µg/mL, partner 0.2 µg/mL	0.804
first compound 0.002 µg/mL, partner 0.4 µg/mL	0.572
first compound 0.0039 µg/mL, partner 0.1 µg/mL	0.884
first compound 0.0039 µg/mL, partner 0.2 µg/mL	0.745
first compound 0.0039 µg/mL, partner 0.4 µg/mL	0.548
first compound 0.0078 µg/mL, partner 0.1 µg/mL	0.872
first compound 0.0078 µg/mL, partner 0.125 µg/mL	0.736
first compound 0.0078 µg/mL, partner 0.2 µg/mL	0.696
first compound 0.0078 µg/mL, partner 0.4 µg/mL	0.521
first compound 0.0312 µg/mL, partner 1 µg/mL	0.0312
first compound 0.0312 µg/mL, partner 2 µg/mL	0.0414
first compound 0.0625 µg/mL, partner 1 µg/mL	0.0468
first compound 0.0625 µg/mL, partner 2 µg/mL	0.0379
first compound 0.125 µg/mL, partner 1 µg/mL	0.0309
first compound 0.125 µg/mL, partner 2 µg/mL	0.0616

fitness, B. subtilis 168 [1]
Details	first compound 0.002 µg/mL	first compound 0.0039 µg/mL	first compound 0.0078 µg/mL	first compound 0.0312 µg/mL	first compound 0.0625 µg/mL	first compound 0.125 µg/mL
partner 0.125 µg/mL	0.554	0.564	–	–	–	–
partner 0.25 µg/mL	–	–	0.689	–	–	–
partner 0.5 µg/mL	0.423	0.414	0.494	0.0339	0.0357	0.0365

Details	Bliss interaction score
B. subtilis 168 [3]	0.0693
S. aureus DSM 20231	-0.0537
S. aureus Newman	-0.109
S. pneumoniae D39V [2]	-0.112

CN(C)C(=O)C(CCN1CCC(O)(c2ccc(Cl)cc2)CC1)(c1ccccc1)c1ccccc1 [Loperamide] + CN[C@H](CC(C)C)C(=O)N[C@H]1C(=O)N[C@@H](CC(N)=O)C(=O)N[C@H]2C(=O)N[C@H]3C(=O)N[C@H](C(=O)N[C@H](C(=O)O)c4cc(O)cc(O)c4-c4cc3ccc4O)[C@H](O)c3ccc(c(Cl)c3)Oc3cc2cc(c3O[C@@H]2O[C@H](CO)[C@@H](O)[C@H](O)[C@H]2O[C@H]2C[C@](C)(N)[C@H](O)[C@H](C)O2)Oc2ccc(cc2Cl)[C@H]1O [Vancomycin]
S. pneumoniae D39V [4]
Details	fitness
first compound 17.14 µg/mL, partner 0.5 µg/mL	0.0584
first compound 20 µg/mL, partner 0.03125 µg/mL	≥ 1
first compound 20 µg/mL, partner 0.0625 µg/mL	0.937
first compound 34.28 µg/mL, partner 0.25 µg/mL	0.77
first compound 34.28 µg/mL, partner 0.5 µg/mL	0.0876
first compound 40 µg/mL, partner 0.03125 µg/mL	0.959
first compound 40 µg/mL, partner 0.0625 µg/mL	0.866
first compound 80 µg/mL, partner 0.125 µg/mL	0.28

S. pneumoniae D39V [4], first compound 68.57 µg/mL, one replicate
Details	fitness
partner 0.125 µg/mL	0.942
partner 0.25 µg/mL	0.853
partner 0.5 µg/mL	0.0639

Details	Bliss interaction score
B. subtilis 168 [3]	-0.0281
S. aureus DSM 20231	-0.0861
S. aureus Newman	0.0922
S. pneumoniae D39V [2]	-0.184

CN(C)C(=O)C(CCN1CCC(O)(c2ccc(Cl)cc2)CC1)(c1ccccc1)c1ccccc1 [Loperamide] + CO[C@@H]1[C@@H](OC(N)=O)[C@@H](O)[C@H](Oc2ccc3c(O)c(NC(=O)c4ccc(O)c(CC=C(C)C)c4)c(=O)oc3c2C)OC1(C)C [Novobiocin]
B. subtilis 168 [1], first compound 25 µg/mL
Details	fitness
partner 0.0125 µg/mL	0.889
partner 0.025 µg/mL	0.85
partner 0.05 µg/mL	0.86

fitness, B. subtilis 168 [1], one replicate
Details	first compound 25 µg/mL	first compound 50 µg/mL	first compound 100 µg/mL
partner 0.125 µg/mL	0.703	0.028	0.0375
partner 0.25 µg/mL	0.274	0.0063	0.0267
partner 0.5 µg/mL	0.186	0.0466	0.0548

Details	Bliss interaction score
B. subtilis 168 [3]	0.205
S. aureus DSM 20231	-0.0535
S. aureus Newman	-0.0759
S. pneumoniae D39V [2]	-0.113

CN(C)C(=O)C(CCN1CCC(O)(c2ccc(Cl)cc2)CC1)(c1ccccc1)c1ccccc1 [Loperamide] + CO[C@H]1/C=C/O[C@@]2(C)Oc3c(C)c(O)c4c(O)c(c(/C=N/N5CCN(C)CC5)c(O)c4c3C2=O)NC(=O)/C(C)=C\C=C\[C@H](C)[C@H](O)[C@@H](C)[C@@H](O)[C@@H](C)[C@H](OC(C)=O)[C@@H]1C [Rifampicin]
fitness, S. pneumoniae D39V [4]
Details	first compound 17.14 µg/mL	first compound 34.28 µg/mL
partner 0.05 µg/mL	0.875	–
partner 0.2 µg/mL	0.145	0.136

fitness, S. pneumoniae D39V [4], one replicate
Details	first compound 20 µg/mL	first compound 40 µg/mL	first compound 68.57 µg/mL	first compound 80 µg/mL
partner 0.025 µg/mL	0.92	0.921	–	0.701
partner 0.05 µg/mL	–	–	0.833	–
partner 0.1 µg/mL	–	–	0.544	–
partner 0.2 µg/mL	0	0	0.14	0

Details	Bliss interaction score
B. subtilis 168 [3]	0.161
S. aureus DSM 20231	-0.0475
S. aureus Newman	0.012
S. pneumoniae D39V [2]	-0.0733
